# Assay results: patent US20240335453A1, “METALLO-ß-LACTAMASE INHIBITORS” (University of KwaZulu-Natal, priority 2021, published 2024)
# Values joined by “and” are separate entries in the source; they are usually repeats but may differ in a detail not shown here. Equal values may be shown once. “Also recorded” adds a separate entry of the source. Read-outs that look alike come from different tables or passages of the source.
# Tests used:
# HepG2 cells [1] = assay: Lactate dehydrogenase (LDH) cytotoxicity assay; format: cell-based, Human; conditions: for Induction of necrosis / Extracellular lactate dehydrogenase (LDH) level: HepG2 cells; for Induction of necrosis: from LDH; for Extracellular lactate dehydrogenase (LDH) level: relative to control
# Description: Human hepatoma (HepG2) cells were cultured in Dulbecco minimum essential medium (Lonza Biowhittaker, Switzerland) supplemented with 1% pen/strep/fungizone, 1% L-glutamine and 10% fetal bovine serum. The cells were maintained under the atmosphere of 5% CO2 at 37° C. Once 80% confluence had been reached, cells were enzymatically detached (trypsin) and utilized for the cell viability assay. The lactate dehydrogenase (LDH) cytotoxicity detection kit (Roche, Mannheim, Germany) was used to measure the cell damage and cytotoxicity in MPR-SMN-05-treated HepG2 cells. Extracellular LDH activity was quantified by incubating […] substrate solution (diaphorase/NAD+; INT/sodium lactate) in a 96 well microtiter plate at room temperature for 30 min. The assay was performed in triplicate. Optical density (OD) was measured following incubation at 500 nm using a spectrophotometric plate reader (Bio-Tek uQuant, Winooski, VT).
# HepG2 cells [2] = assay: Cell viability (MTT) assay; format: cell-based, Human; conditions: for IC50: Homo sapiens, HepG2, 24 h; for HepG2 cell viability, effect in words: relative to control
# Description: Human hepatoma (HepG2) cells were cultured in Dulbecco minimum essential medium (Lonza Biowhittaker, Switzerland) supplemented with 1% pen/strep/fungizone, 1% L-glutamine and 10% fetal bovine serum. The cells were maintained under the atmosphere of 5% CO2 at 37° C. Once 80% confluence had been reached, cells were enzymatically detached (trypsin) and utilized for the cell viability assay. The effect of MPR-SMN-05 on cell viability was determined using the 3-(4,5-Dimethyl-2-thiazolyl)-2,5-diphenyl-2H-tetrazolium bromide (MTT) assay according to previously reported studies by Mosmann (Mosmann T. Rapid colorimetric assay for cellular growth and survival: application to proliferation and cytotoxicity assays. Journal of immunological methods 1983; 65: 55-63). Approximately 15, 000 cells were seeded in a 96-well microtiter plate and allowed to adhere overnight. The cells were subsequently exposed to a range of 0 to 250 mg/L MPR-SMN-05 (experiments were done in triplicate). After incubation with MPR-SMN-05 for 24 h, cells were washed twice with 0.1 M phosphate buffer saline (PBS) and incubated with 20 μl MTT salt solution (5 mg/ml in 0.1 M PBS) and 100 μl complete culture medium (CCM) (37° C., 4 h). The MTT salt solution was then discarded and […] of DMSO was added to each well and incubated (37° C., 1 h) to dissolve the formazan crystals. The optical density was measured at 570/690 nm employing a spectrophotometer (Bio-Tek uQuant, Winooski, VT). The results were expressed as percentage cell viability vs. log concentration of MPR-SMN-05, from which the half maximal inhibitory concentration (IC50) was determined. Control treatments were represented by an equal amount of DMSO solvent in CCM without the test compound.
# E. coli NDM-1 [3] = assay: MIC broth microdilution checkerboard; format: cell-based, Escherichia coli
# Description: (§1) Briefly, two-fold dilutions of each meropenem/BP or meropenem/TG from 0.015 to 16 μg/mL and 1 to 64 μg/mL respectively were made in cation adjusted Mueller-Hinton Broth (CAMHB) in a 96-well microtitre plate using the checkerboard method (King et al). A 0.5 McFarland-standardized bacterial inoculum was added to make a total volume of 100 μl in each microtitre well. The initial inoculum density was determined by plating out MHA plates for MBC testing. The plates were then incubated for 18-22 h at 37° C. under aerobic conditions. The MIC was determined as the lowest concentration at which there was no visible growth. Control wells included the amount of solvent used in dissolving drug candidates.
# (§2) To investigate the potential activity of BP1 and TG1 as MBLs inhibitors well characterized carbapenem-resistant bacteria expressing known class B carbapenemases were used. MICs using the broth micro-dilution method was conducted according to CLSI guidelines (Clinical and Laboratory Standards Institute. Performance Standards for Antimicrobial Susceptibility Testing: Twenty-Fourth Informational Supplement M100-S24. CLSI, Wayne, PA, USA, 2014) using cation adjusted Mueller-Hinton broth for meropenem, alone (See table 4) and in combination with the metal chelating agents BP1 and TG1 at variable concentrations (two-fold dilutions from 1 to 64 μg/mL). Escherichia coli ATCC 25922 was used as the control.
# K. pneumoniae IMP-8 [4] = assay: Time-kill assay; format: cell-based; conditions: BP1 in combination with meropenem
# Description: (§3) Time-kill studies were performed according to previously published methods, including those described by CLSI document M26-A. E. coli NDM-1, K. pneumoniae IMP-8 and K. pneumoniae NDM were the strains selected for this assay. Briefly, freshly prepared colonies were re-suspended in 10 mL CAMHB and incubated in a shaking incubator (37° C., 180 rpm) for 1 to 2 h. Cultures were then diluted to a 0.5 McFarland standard (approximately 10^8 CFU/mL) and further diluted 1:20 in CAMHB so that the starting inoculum was approximately 5×10^6 CFU/mL. […] A growth control with no antibiotic was also included. The starting inoculum was determined from the growth control tube immediately after dilution and was recorded as the count at time zero. After addition of antibiotics, the starting inoculum was approximately 1×10^6 to 5×10^6 CFU/mL. Tubes were incubated in a shaking incubator at 37° C., 180 rpm, and viability counts were performed at 1, 2, 4, 6, 8 and 24 h by removing 100 μL of the culture, diluting as appropriate, and plating 100 μL on MHA. MHA plates were incubated at 37° C. for at least 18 h. Colonies were counted, and the results were recorded as the number of CFU/mL. A ≥3−log10 decrease in the number of CFU/mL was considered bactericidal.
# E. coli NDM-1 [5] = assay: Time-kill assay; format: cell-based; conditions: BP1 in combination with meropenem
# Description: as §3
# E. cloacae IMP-8 = assay: MIC broth microdilution checkerboard; format: cell-based; conditions: Enterobacter cloacae
# Description: as §1, §2
# P. rettgeri NDM-1 = assay: MIC broth microdilution checkerboard; format: cell-based; conditions: Providencia rettgeri
# Description: as §1, §2
# E. cloacae VIM-1 = assay: MIC broth microdilution checkerboard; format: cell-based; conditions: Enterobacter cloacae
# Description: as §1, §2
# E. coli NDM-4 = assay: MIC broth microdilution checkerboard; format: cell-based; conditions: Escherichia coli
# Description: as §1, §2
# K. pneumonia VIM-1 = assay: MIC broth microdilution checkerboard; format: cell-based; conditions: Klebsiella pneumoniae
# Description: as §1, §2
# E. coli IMP-1 = assay: MIC broth microdilution checkerboard; format: cell-based; conditions: Escherichia coli
# Description: as §1, §2
# K. pneumoniae IMP-8 [6] = assay: MIC broth microdilution checkerboard; format: cell-based; conditions: Klebsiella pneumoniae
# Description: as §1, §2
# K. pneumonia IMP-1 = assay: MIC broth microdilution checkerboard; format: cell-based; conditions: Klebsiella pneumoniae
# Description: as §1, §2
# [7] = test system: Klebsiella pneumoniae 449; assay: MIC broth microdilution checkerboard; format: cell-based; conditions: read-out: MIC, Meropenem administered alone
# Description: as §1
smiles,measurement,setting,value
CCN1CCN(CC)CCN(C(CC(=O)Nc2nc(/C(=C/CC(=O)O)C(=O)N[C@@H]3C(=O)N4C(C(=O)O)=CCS[C@H]34)cs2)C(=O)OC)CC1 (stereo partly drawn) [BP14],Induction of necrosis,HepG2 cells [1],does not induce necrosis
same,Extracellular lactate dehydrogenase (LDH) level,HepG2 cells [1],significantly reduced at 8 μg/ml; also recorded: remained unaffected at 1 μg/ml and 10-200 μg/ml
same,IC50,HepG2 cells [2],42.3 µg/mL
same,"HepG2 cell viability, effect in words",HepG2 cells [2],reduced cell viability at 1 μg/ml and 10-200 μg/ml; also recorded: proliferation occurred at 8 μg/ml
C/C=C(/C(=O)N[C@@H]1C(=O)N2C(C(=O)O)=C(CSC(=O)c3ccco3)CS[C@H]12)c1csc(NC(=O)CC(C)N2CCN(CC)CCN(CC)CC2)n1 (stereo partly drawn) [BP6],Induction of necrosis,HepG2 cells [1],does not induce necrosis
same,Extracellular lactate dehydrogenase (LDH) level,HepG2 cells [1],significantly reduced at all concentrations
same,IC50,HepG2 cells [2],51.8 µg/mL
same,"HepG2 cell viability, effect in words",HepG2 cells [2],dose dependent increase in the cell viability; also recorded: only significantly altered at 200 μg/ml
CCN1CCN(CC)CCN(C(CC(=O)NC2C(=O)N3C(C(=O)[O-])=C(C[n+]4ccccc4)CSC23)C(=O)OC)CC1 (stereo not drawn) [BP1],Induction of necrosis,HepG2 cells [1],does not induce necrosis
same,Extracellular lactate dehydrogenase (LDH) level,HepG2 cells [1],significantly reduced at all concentrations
same,"Cytotoxicity, overall statement","HepG2 cells [1]; in vitro, cell lines",safe at the active concentrations
same,IC50,HepG2 cells [2],60 µg/mL
same,"HepG2 cell viability, effect in words",HepG2 cells [2],dose-dependent decrease in cell viability was observed with a significant decrease occurring at 100 and 200 μg/ml
same,MIC,"E. coli NDM-1 [3]; Escherichia coli, NDM1, E. coli NDM-1, read-out: MIC BP1 alone",> 64 µg/mL and > 84 µM
same,Time-kill kinetics outcome,K. pneumoniae IMP-8 [4],bactericidal activity
same,Time-kill kinetics outcome,E. coli NDM-1 [5],bactericidal activity
same,MIC,"E. cloacae IMP-8; IMP8, E. cloacae IMP-8, read-out: MIC BP1 alone",> 64 µg/mL and > 84 µM
same,MIC,"P. rettgeri NDM-1; NDM1, P. rettgeri NDM-1, read-out: MIC BP1 alone",> 64 µg/mL and > 84 µM
same,MIC,"E. cloacae VIM-1; VIM1, E. cloacae VIM-1, read-out: MIC BP1 alone",> 64 µg/mL and > 84 µM
same,MIC,"E. coli NDM-4; NDM4, E. coli NDM-4, read-out: MIC BP1 alone",> 64 µg/mL and > 84 µM
same,MIC,"K. pneumonia VIM-1; VIM1, K. pneumonia VIM-1, read-out: MIC BP1 alone",> 64 µg/mL and > 84 µM
same,MIC,"E. coli IMP-1; IMP1, read-out: MIC BP1 alone",> 64 µg/mL and > 84 µM
same,MIC,"K. pneumoniae IMP-8 [6]; IMP8, K. pneumoniae IMP-8, read-out: MIC BP1 alone",> 64 µg/mL and > 84 µM
same,MIC,"K. pneumonia IMP-1; IMP1, K. pneumonia IMP-1, read-out: MIC BP1 alone",> 64 µg/mL and > 84 µM
CCC1=C(C(=O)O)N2C(=O)[C@@H](NC(=O)/C(=N/C)c3csc(NC(=O)CC(C)N4CCN(CC)CCN(CC)CC4)n3)[C@H]2SC1 (stereo partly drawn) [BP10],Induction of necrosis,HepG2 cells [1],does not induce necrosis
same,Extracellular lactate dehydrogenase (LDH) level,HepG2 cells [1],remained unaffected at 1 μg/ml; also recorded: significantly reduced at 8-200 μg/ml
same,IC50,HepG2 cells [2],62 µg/mL
same,"HepG2 cell viability, effect in words",HepG2 cells [2],not significantly altered at 50-100 μg/ml; also recorded: significantly reduced at 200 μg/ml
"O=C(O)CN1CCN(CC(=O)O)CCN(CC(=O)O)CC1 [TG1, 1,4,7-triazacyclononane-1,4,7-triacetic acid]",MIC,"E. coli NDM-1 [3]; Escherichia coli, NDM1, read-out: MIC TG1 alone",> 64 µg/mL and > 131 µM
same,MIC,"E. cloacae IMP-8; IMP8, read-out: MIC TG1 alone",> 64 µg/mL and > 131 µM
same,MIC,"P. rettgeri NDM-1; NDM1, read-out: MIC TG1 alone",> 64 µg/mL and > 131 µM
same,MIC,"E. cloacae VIM-1; VIM1, read-out: MIC TG1 alone",> 64 µg/mL and > 131 µM
same,MIC,"E. coli NDM-4; NDM4, read-out: MIC TG1 alone",> 64 µg/mL and > 131 µM
same,MIC,"K. pneumonia VIM-1; VIM1, read-out: MIC TG1 alone",> 64 µg/mL and > 131 µM
same,MIC,"E. coli IMP-1; IMP1, read-out: MIC TG1 alone",> 64 µg/mL and > 131 µM
same,MIC,"K. pneumoniae IMP-8 [6]; IMP8, read-out: MIC TG1 alone",> 64 µg/mL and > 131 µM
same,MIC,"K. pneumonia IMP-1; IMP1, read-out: MIC TG1 alone",> 64 µg/mL and > 131 µM
C[C@@H](O)[C@H]1C(=O)N2C(C(=O)O)=C(S[C@@H]3CN[C@H](C(=O)N(C)C)C3)[C@H](C)[C@H]12 [Meropenem],MIC,[7],> 32 µg/mL
same,MIC,"E. coli NDM-1 [3]; Escherichia coli, NDM1, E. coli NDM-1, read-out: MIC MEM alone",> 16 µg/mL and > 42 µM
same,MIC,"E. coli NDM-1 [3]; NDM1, Escherichia coli NDM-1 (Table 6 footnote), read-out: MIC, Meropenem administered alone",> 32 µg/mL
same,MIC,"E. cloacae IMP-8; IMP8, E. cloacae IMP-8, read-out: MIC MEM alone",8 µg/mL and 21 µM
same,MIC,"P. rettgeri NDM-1; NDM1, P. rettgeri NDM-1, read-out: MIC MEM alone",> 16 µg/mL and > 42 µM
same,MIC,"E. cloacae VIM-1; VIM1, E. cloacae VIM-1, read-out: MIC MEM alone",8 µg/mL and 21 µM
same,MIC,"E. coli NDM-4; NDM4, E. coli NDM-4, read-out: MIC MEM alone",> 16 µg/mL and > 42 µM
same,MIC,"K. pneumonia VIM-1; VIM1, K. pneumonia VIM-1, read-out: MIC MEM alone",> 16 µg/mL and > 42 µM
same,MIC,"E. coli IMP-1; IMP1, read-out: MIC MEM alone",16 µg/mL and 42 µM
same,MIC,"K. pneumoniae IMP-8 [6]; IMP8, K. pneumoniae IMP-8, read-out: MIC MEM alone",8 µg/mL and 21 µM
same,MIC,"K. pneumonia IMP-1; IMP1, K. pneumonia IMP-1, read-out: MIC MEM alone",> 16 µg/mL and > 42 µM
